# From patent US20220008402A1, “INCREASED E-CADHERIN EXPRESSION OR ACTIVITY FOR THE TREATMENT OF INFLAMMATORY DISEASES” (The Cleveland Clinic Foundation, priority 2020, published 2022)
# Entries after “also recorded” stand apart in the source; their conditions may differ.
# What was measured:
# Type in all cases: cell-based, human
# [1] = system: T84 cell monolayers; assay: Immunofluorescence labeling of adherens and tight junctions (E-cadherin, ZO-1)
# Procedure: (§1) FIG. 5: E-cadherin-enhancing drugs prevent cytokine-induced disruption of epithelial adherens junctions. Confluent T84 cell monolayers were pretreated with either vehicle, or ECU (10 μM) for 24 hours. Afterwards, cells were exposed to a combination of TNFα (10 ng/ml) and IFNγ (50 ng/ml) with and without ECU for 48 h. Cells were fixed and structure of adherens was determined by immunolabeling of E-cadherin. Arrows point on disruption of normal E-cadherin labeling in cytokine-exposed, vehicle-treated cells.
# as §1, with “FIG. 6:” for “FIG. 5:”, “epithelial tight” for “epithelial adherens”, “with or” for “with and”, “of tight junctions” for “of adherens”, “by ZO-1 immunolabeling.” for “by immunolabeling of E-cadherin.”, “normal ZO-1” for “normal E-cadherin”
# In order to visualize structure of epithelial junctions, cultured colonic epithelial cell monolayers were fixed and permeabilized with 100% methanol at −20° C. Fixed samples were blocked for 60 min in HBSS containing 1% bovine serum albumin, followed by a 60-min incubation with primary antibodies against E-cadherin (BD Bioscience) and ZO-1 (Thermo-Fisher). Samples were then washed and incubated with Alexa-Fluor-488-conjugated donkey anti-rabbit and Alexa-Fluor-555—conjugated donkey anti-mouse secondary antibodies for 60 min, rinsed with blocking buffer, and mounted on slides with ProLong Antifade mounting reagent (Thermo-Fisher). Immunolabeled cell monolayers were imaged using a Leica SP8 confocal microscope (Wentzler, Germany). The Alexa Fluor 488 and 555 signals were acquired sequentially in frame-interlace mode to eliminate cross talk between channels. Images were processed using Adobe Photoshop. The images shown are representative of at least three experiments, with multiple images taken per slide. […]
# [2] = system: T84 cell monolayers; assay: Cytokine-induced apoptosis, immunoblotting of PARP, cleaved PARP, cleaved caspase-3; settings: 10 μM pretreatment 24 h, then IFNγ 50 ng/ml alone or with TNFα 10 ng/ml, 48 h
# Procedure: FIG. 7: E-cadherin-enhancing drugs attenuate cytokine-induced cell death. Confluent T84 cell monolayers were pretreated with either vehicle, or ECU (10 μM) for 24 h. Afterwards, cells were exposed to either IFNγ (50 ng/ml) alone, or its combination with TNFα (10 ng/ml) with and without addition of ECU for additional 48h. Cell were lysed and levels of different apoptotic markers were determined by immunoblotting analysis.
# To prepare total cell lysates, epithelial cell monolayers were scraped and homogenized using a Dounce homogenizer in RIPA buffer (20 mM Tris, 50 mM NaCl, 2 mM EDTA, 2 mM EGTA, 1% sodium deoxycholate, 1% Triton X-100 (TX-100), and 0.1% SDS, pH 7.4) containing protease inhibitor cocktail and phosphatase inhibitor cocktails 2 and 3 (Sigma-Aldrich). The obtained total cell lysates were cleared by centrifugation (20 min at 14,000×g), diluted with 2×SDS sample loading buffer and boiled. SDS-polyacrylamide gel electrophoresis was conducted using a standard protocol with equal amounts of total protein (10 or 20 μg) loaded per each lane. The separated proteins were transferred to nitrocellulose membranes and the membranes were blocked with 5% non-fat milk. […]
# [3] = system: T84 cell monolayers; assay: Wound healing assay; settings: 10 μM pretreatment 24 h, migration 24-48 hours
# Procedure: FIG. 8: E-cadherin-enhancing drug promote collective migration of intestinal epithelial cells. Confluent T84 cell monolayers were pretreated with either vehicle, ECU (10 μM) or ML327 (10 μM) for 24 hours. Afterwards, cell monolayers were wounded and allowed to migrate into wound area in the presence of the drugs. Cell monolayers were photographed and wound closure was calculated at the indicated times. Data is presented as mean ±SE (n=3); **P<0.05, ***P<0.01.
# Confluent epithelial cell monolayers were mechanically wounded by making a thin scratch wound with a 200 μl pipette tip. The bottom of the well was marked to define the position of the wound and the monolayers were supplied with fresh cell culture medium. The images of a cell-free area at the marked region were acquired at the indicated times after wounding using an inverted bright field microscope equipped with a camera. The percentage of wound closure was calculated using an Image J software (NIH, Bethesda, Md.).
# Finally, the effects of E-cadherin-enhancing drugs on epithelial restitution (wound healing) were examined. This is an important question given the fact that epithelial wounds are frequently formed in inflamed intestinal mucosa of IBD patients and wound healing is necessary to restore the integrity of the gut barrier and to achieve remission of chronic inflammatory diseases. […]
# [4] = 10 μM pretreatment 24 h, then TNFα 10 ng/ml + IFNγ 50 ng/ml, 48 h
compound,measurement,setting,value
O=C(NCCCCc1ccncc1)c1cc(-c2ccco2)on1 [ECU],"Cytokine-induced adherens junction (AJ) disassembly, E-cadherin immunolabeling",[1]; [4],dramatic suppression of cytokine-induced disruption of adherens junctions; also recorded: completely prevented cytokine-induced junctional disassembly
same,"Cytokine-induced tight junction (TJ) disassembly, ZO-1 immunolabeling",[1]; [4],inhibition of cytokine-induced tight junction disruption; also recorded: completely prevented cytokine-induced junctional disassembly
same,Normal AJ and TJ structure,"[1]; 10 μM, without cytokines",little effect
same,"Cytokine-induced apoptosis (PARP cleavage, caspase-3 activation)",[2],prevented cytokine-induced PARP cleavage and caspase-3 activation
same,Cell migration during wound healing (wound closure),[3],significantly increased migration
